Measurements reported in US11547681B2, “N-acylethanolamide derivatives and uses thereof” (ELIEM THERAPEUTICS, INC., priority 2016, dated 2023).
Values belong to the compound of their own block, whether it stands above or below them.

Experiment: in vitro
Details: for Measured concentration of PEA (analyte) / % Remaining of Initial / Concentration (μM) of analyte PEA, 0 min / Concentration (μM) of analyte PEA, 10 min / Concentration (μM) of analyte PEA, 20 min / Concentration (μM) of analyte PEA, 30 min / Concentration (μM) of analyte PEA, 60 min / % Remaining of Initial (n = 1), 0 min / % Remaining of Initial (n = 1), 10 min / % Remaining of Initial (n = 1), 20 min / % Remaining of Initial (n = 1), 30 min / % Remaining of Initial (n = 1), 60 min: 1 μM
Description: Reaction mixture, minus cofactors, was prepared as described below. Test article was added into the reaction mixture at a final concentration of 1 μM. […] An aliquot of the reaction mixture (without cofactor cocktail) was equilibrated in a shaking water bath at 37° C. for 3 minutes. The reaction was initiated by the addition of cofactor cocktail (see below), and the mixture was then incubated in a shaking water bath at 37° C. Aliquots (100 μL) were withdrawn 0, 10, 20, 30 and 60 minutes. Test article samples were immediately combined with 300 μL of ice-cold acetonitrile containing 1% formic acid. Control samples were immediately combined with 400 μL of ice-cold 50/50 acetonitrile (ACN)/dH2O containing 0.1% formic acid and internal standard to terminate the reaction. Samples were then mixed and centrifuged to precipitate proteins. Calibration standards were prepared in matched matrix. Samples and standards were assayed by LC-MS/MS using electrospray ionization for both the dosed prodrug and the expected drug (PEA). Analytical conditions are outlined in Appendix 8-1. Test article concentration at each time point was compared to the test article concentration at time 0 to determine the percent remaining at each time point. Half-lives were calculated using GraphPad software, fitting to a single-phase exponential decay equation.
Reaction mixture, minus cofactors, was prepared as described below. Test article was added into the reaction mixture at a final concentration of 1 μM. […] An aliquot of the reaction mixture (without cofactor cocktail) was equilibrated in a shaking water bath at 37° C. for 5 minutes. Reaction was initiated by the addition of cofactor cocktail (see below), and mixture was then incubated in a shaking water bath at 37° C. Aliquots (100 μL) were withdrawn at 0, 10, 20, 30, and 60 minutes. Test article samples were immediately combined with 300 μL of ice-cold acetonitrile containing 1% formic acid. Control samples were immediately combined with 400 μL of ice-cold 50/50 acetonitrile (ACN)/dH2O containing 0.1% formic acid and internal standard to terminate the reaction. Samples were then mixed and centrifuged to precipitate proteins. Calibration standards were prepared in matched matrix. Samples and standards were assayed by LC-MS/MS using electrospray ionization for both dosed prodrug and expected drug (PEA). Analytical conditions are outlined in Appendix 10-1. Test article concentration at each time point was compared to test article concentration at time 0 to determine the percent remaining at each time point. Half-lives were calculated using GraphPad software, fitting to a single-phase exponential decay equation.
The reaction mixture, minus cofactors, was prepared as described below. Test article was added into the reaction mixture at a final concentration of 1 μM. […] An aliquot of the reaction mixture (without cofactor cocktail) was equilibrated in a shaking water bath at 37° C. for 3 minutes. Reaction was initiated by the addition of cofactor cocktail (see below), and the mixture was then incubated in a shaking water bath at 37° C. Aliquots (100 μL) were withdrawn at 0, 10, 20, 30, and 60 minutes. Test article samples were immediately combined with 300 μL of ice-cold acetonitrile containing 1% formic acid. Control samples were immediately combined with 400 μL of ice-cold 50/50 acetonitrile (ACN)/dH2O containing 0.1% formic acid and internal standard to terminate the reaction. Samples were then mixed and centrifuged to precipitate proteins. Calibration standards were prepared in matched matrix. Samples and standards were assayed by LC-MS/MS using electrospray ionization for both dosed prodrug and expected drug (PEA). Analytical conditions are outlined in Appendix 13-1. Test article concentration at each time point was compared to the test article concentration at time 0 to determine the percent remaining at each time point.

[1] = male, Sprague-Dawley, rat, 0 min
[2] = male, Sprague-Dawley, rat, 10 min
[3] = male, Sprague-Dawley, rat, 20 min
[4] = male, Sprague-Dawley, rat, 30 min
[5] = male, Sprague-Dawley, rat, 60 min
[6] = male, Sprague-Dawley, rat, s9, 0 h
[7] = male, Sprague-Dawley, rat, s9, 10 min
[8] = male, Sprague-Dawley, rat, s9, 20 min
[9] = male, Sprague-Dawley, rat, s9, 0.5 h
[10] = male, Sprague-Dawley, rat, s9, 1 h

Measured concentration of PEA (analyte) (both, human, 0 min): 0.10 µM | Measured concentration of PEA (analyte) (both, human, 10 min): 0.46 µM | Measured concentration of PEA (analyte) (both, human, 20 min): 0.42 µM | Measured concentration of PEA (analyte) (both, human, 30 min): 0.39 µM | Measured concentration of PEA (analyte) (both, human, 60 min): 0.27 µM | % Remaining of Initial (both, human, s9, 0 h): 100% | % Remaining of Initial (both, human, s9, 10 min): 4.9% | % Remaining of Initial (both, human, s9, 20 min): 2.1% | % Remaining of Initial (both, human, s9, 0.5 h): <1.0% | % Remaining of Initial (both, human, s9, 1 h): <1.0% | half-life at 1 μM (both, human, s9, Half-life): < 10 min | Measured concentration of PEA (analyte) (male, Beagle, dog, 0 min): 0.053 µM | Measured concentration of PEA (analyte) (male, Beagle, dog, 10 min): 0.26 µM | Measured concentration of PEA (analyte) (male, Beagle, dog, 20 min): 0.33 µM | Measured concentration of PEA (analyte) (male, Beagle, dog, 30 min): 0.29 µM | Measured concentration of PEA (analyte) (male, Beagle, dog, 60 min): 0.23 µM | % Remaining of Initial (male, Beagle, dog, s9, 0 h): 100% | % Remaining of Initial (male, Beagle, dog, s9, 10 min): 2.1% | % Remaining of Initial (male, Beagle, dog, s9, 20 min): <1.0% | % Remaining of Initial (male, Beagle, dog, s9, 0.5 h): <1.0% | % Remaining of Initial (male, Beagle, dog, s9, 1 h): <1.0% | half-life at 1 μM (male, Beagle, dog, s9, Half-life): < 10 min | Measured concentration of PEA (analyte) (male, CD-1, mouse, 0 min): 0.33 µM | Measured concentration of PEA (analyte) (male, CD-1, mouse, 10 min): 0.78 µM | Measured concentration of PEA (analyte) (male, CD-1, mouse, 20 min): 0.68 µM | Measured concentration of PEA (analyte) (male, CD-1, mouse, 30 min): 0.59 µM | Measured concentration of PEA (analyte) (male, CD-1, mouse, 60 min): 0.43 µM | % Remaining of Initial (male, CD-1, mouse, s9, 0 h): 100% | % Remaining of Initial (male, CD-1, mouse, s9, 10 min): 3.7% | % Remaining of Initial (male, CD-1, mouse, s9, 20 min): <1.0% | % Remaining of Initial (male, CD-1, mouse, s9, 0.5 h): <1.0% | % Remaining of Initial (male, CD-1, mouse, s9, 1 h): <1.0% | half-life at 1 μM (male, CD-1, mouse, s9, Half-life): < 10 min | Measured concentration of PEA (analyte) [1]: 0.050 µM | Measured concentration of PEA (analyte) [2]: 0.13 µM | Measured concentration of PEA (analyte) [3]: 0.13 µM | Measured concentration of PEA (analyte) [4]: 0.058 µM | Measured concentration of PEA (analyte) [5]: 0.020 µM | % Remaining of Initial [6]: 100% | % Remaining of Initial [7]: 3.0% | % Remaining of Initial [8]: <1.0% | % Remaining of Initial [9]: <1.0% | % Remaining of Initial [10]: <1.0% | half-life at 1 μM (male, Sprague-Dawley, rat, s9, Half-life): < 10 min | half-life at 1 μM (male, Sprague-Dawley, rat, s9, Half-life, calculated value in parentheses): 2 min
SMILES: CCCCCCCCCCCCCCCC(=O)NCCOC(=O)CCC(=O)OC(COC(=O)CCC)COC(=O)CCC [Compound I-16]

Concentration (μM) of analyte PEA, 0 min (both, human, 0 min): 0.014 µM | Concentration (μM) of analyte PEA, 10 min (both, human, 10 min): 0.037 µM | Concentration (μM) of analyte PEA, 20 min (both, human, 20 min): 0.022 µM | Concentration (μM) of analyte PEA, 30 min (both, human, 30 min): 0.022 µM | Concentration (μM) of analyte PEA, 60 min (both, human, 60 min): 0.016 µM | % Remaining of Initial (n = 1), 0 min (both, human, s9, 0 h): 100% | % Remaining of Initial (n = 1), 10 min (both, human, s9, 10 min): 80% | % Remaining of Initial (n = 1), 20 min (both, human, s9, 20 min): 102% | % Remaining of Initial (n = 1), 30 min (both, human, s9, 0.5 h): 95% | % Remaining of Initial (n = 1), 60 min (both, human, s9, 1 h): 77% | half-life at 1 μM (both, human, s9, Half-life (min)): > 60 min | Concentration (μM) of analyte PEA, 0 min (male, Beagle, dog, 0 min): 0.016 µM | Concentration (μM) of analyte PEA, 10 min (male, Beagle, dog, 10 min): 0.044 µM | Concentration (μM) of analyte PEA, 20 min (male, Beagle, dog, 20 min): 0.041 µM | Concentration (μM) of analyte PEA, 30 min (male, Beagle, dog, 30 min): 0.049 µM | Concentration (μM) of analyte PEA, 60 min (male, Beagle, dog, 60 min): 0.037 µM | % Remaining of Initial (n = 1), 0 min (male, Beagle, dog, s9, 0 h): 100% | % Remaining of Initial (n = 1), 10 min (male, Beagle, dog, s9, 10 min): 101% | % Remaining of Initial (n = 1), 20 min (male, Beagle, dog, s9, 20 min): 106% | % Remaining of Initial (n = 1), 30 min (male, Beagle, dog, s9, 0.5 h): 102% | % Remaining of Initial (n = 1), 60 min (male, Beagle, dog, s9, 1 h): 110% | half-life at 1 μM (male, Beagle, dog, s9, Half-life (min)): > 60 min | Concentration (μM) of analyte PEA, 0 min (male, CD-1, mouse, 0 min): 0.030 µM | Concentration (μM) of analyte PEA, 10 min (male, CD-1, mouse, 10 min): 0.041 µM | Concentration (μM) of analyte PEA, 20 min (male, CD-1, mouse, 20 min): 0.033 µM | Concentration (μM) of analyte PEA, 30 min (male, CD-1, mouse, 30 min): 0.031 µM | Concentration (μM) of analyte PEA, 60 min (male, CD-1, mouse, 60 min): 0.015 µM | % Remaining of Initial (n = 1), 0 min (male, CD-1, mouse, s9, 0 h): 100% | % Remaining of Initial (n = 1), 10 min (male, CD-1, mouse, s9, 10 min): 87% | % Remaining of Initial (n = 1), 20 min (male, CD-1, mouse, s9, 20 min): 87% | % Remaining of Initial (n = 1), 30 min (male, CD-1, mouse, s9, 0.5 h): 99% | % Remaining of Initial (n = 1), 60 min (male, CD-1, mouse, s9, 1 h): 75% | half-life at 1 μM (male, CD-1, mouse, s9, Half-life (min)): > 60 min | Concentration (μM) of analyte PEA, 0 min [1]: 0.020 µM | Concentration (μM) of analyte PEA, 10 min [2]: 0.035 µM | Concentration (μM) of analyte PEA, 20 min [3]: 0.021 µM | Concentration (μM) of analyte PEA, 30 min [4]: 0.021 µM | Concentration (μM) of analyte PEA, 60 min [5]: 0.013 µM | % Remaining of Initial (n = 1), 0 min [6]: 100% | % Remaining of Initial (n = 1), 10 min [7]: 64% | % Remaining of Initial (n = 1), 20 min [8]: 82% | % Remaining of Initial (n = 1), 30 min [9]: 93% | % Remaining of Initial (n = 1), 60 min [10]: 89% | half-life at 1 μM (male, Sprague-Dawley, rat, s9, Half-life (min)): > 60 min
SMILES: CCCCC/C=C\C/C=C\CCCCCCCC(=O)OCCNC(=O)CCCCCCCCCCCCCCC [Compound I-6]
